Experimental data taken from patent US20250353819A1, “ARYL HYDANTOIN COMPOUNDS AND METHODS OF USE” (priority 2022, published 2025).
Values joined by “and” are separate entries in the source; they are usually repeats but may differ in a detail not shown here. Equal values may be shown once. Read-outs that look alike come from different tables or passages of the source.

What was measured:
[1] = LogD7.4 (shake flask); conditions: pH 7.4
[2] = In vitro metabolic stability, mouse liver microsomes; type: in vitro ADME; conditions: mouse liver microsomes; read-out: m CLint
Protocol: (§1) In Vitro Metabolic Stability. As described by Charman et al. (2020), metabolic stability assays were performed by incubating test compounds in liver microsomes at 37° C. and 0.4 mg/mL protein concentration. The metabolic reaction was initiated by the addition of an NADPH-regenerating system and quenched at various time points over a 60 min incubation period by the addition of acetonitrile containing diazepam as internal standard. Control samples (containing no NADPH) were included (and quenched at 2, 30 and 60 min) to monitor for potential degradation in the absence of cofactor.

[3] = Stability in human cryopreserved hepatocytes; type: in vitro ADME
[4] = Plasma protein binding, mouse plasma; type: in vitro ADME; conditions: for fraction unbound: mouse, plasma, read-out: % bound (converted)
[5] = Plasma protein binding, rat plasma; type: in vitro ADME; conditions: read-out: % bound (converted)
[6] = In vitro metabolic stability, human liver microsomes; type: in vitro ADME; conditions: human liver microsomes; read-out: h CLint
Protocol: as §1

[7] = target: CYP 2C19 (Homo sapiens (Human), UniProt P33261); assay: CYP inhibition in human liver microsomes, 2C19; type: in vitro ADME
[8] = Plasma protein binding, dog plasma; type: in vitro ADME; conditions: read-out: % bound (converted)
[9] = Stability in rat cryopreserved hepatocytes; type: in vitro ADME; conditions: for CLint: Rat cryopreserved hepatocytes
[10] = test system: S. mansoni; assay: Antischistosomal screen in S. mansoni-infected mice; type: in vivo, Schistosoma mansoni; conditions: Schistosoma mansoni, single oral dose, mouse model
Description: Antischistosomal Screen. […] As described by Lombardo et al. (2019), cercariae of S. mansoni were obtained from infected Biomphalaria glabrata. By way of example, NMRI mice were infected subcutaneously with approximately 100 S. mansoni cercariae. […] Untreated mice (n=8) served as controls. At 21 d post-treatment, animals were killed by the CO2 method and dissected. Worms were removed by picking, then sexed and counted.

[11] = target: CYP 3A4 (Homo sapiens (Human), UniProt P08684); assay: CYP inhibition in human liver microsomes, 3A4
[12] = test system: S. japonicum; assay: S. japonicum infections in mice; type: in vivo
[13] = Whole blood to plasma partitioning, human; type: in vitro ADME
[14] = test system: S. japonicum; assay: S. japonicum infections in hamsters; type: in vivo
[15] = Chemical stability (acid, base, H2O2); type: physicochemical
Protocol: Samples were neutralised and diluted to a nominal concentration of 100 μg/mL in 50% aq MeOH. […] A single degradation peak appeared in all the basic samples corresponding to the urea carboxylic acid hydrolysis product.

[16] = In vitro metabolic stability, dog microsomes; type: in vitro ADME; conditions: liver microsomes
Protocol: as §1

[17] = Photostability; type: physicochemical; conditions: 500 μg/mL in 50% aq. MeOH, simulated confirmatory and forced degradation sunlight conditions
Protocol: MeOH also was evaluated under simulated confirmatory and forced degradation sunlight conditions.

[18] = test system: S. haematobium; assay: S. haematobium infections in hamsters; type: in vivo; conditions: single 50 mg/kg oral dose
[19] = test system: adult S. mansoni; assay: ex vivo exposure of adult S. mansoni; parameters: species or system Schistosoma mansoni; conditions: S. mansoni worms exposed ex vivo
Description: Without wishing to be bound to any particular theory, it is believed that the activity of the disclosed compounds is mediated at least in part by a host effect.

[20] = in vivo; parameters: species or system dog; conditions: for clearance: read-out: Plasma CL; for AUC(0-t): read-out: mean AUClast; for C0: read-out: mean plasma concentration extrapolated to time zero (C0); for MTD: Beagle dogs, read-out: maximum tolerated dose (MTD); for NOAEL: male and female Beagle dogs, read-out: no observed adverse effect level (NOAEL)
Protocol: The same 2M/2F dogs were used following 2-week washout periods for each dose level in escalation order. This was a survival study and animals were not sacrificed. The following parameters were evaluated: mortality/morbidity, clinical observations, body weights, plasma drug levels, pharmacokinetics and clinical pathology (hematology, coagulation and serum chemistry).

[21] = test system: androgen-receptor; assay: DHT-induced (KLK3, FKBP5) and DHT-repressed (ZFP36L1) transcripts in LAPC4 cells; type: cell-based; conditions: Compound IE up to 10 μM
[22] = In vitro metabolic stability, rat microsomes; type: in vitro ADME; conditions: liver microsomes
Protocol: as §1

[23] = adult stage, read-out: S. mansoni ED50, adult
[24] = juvenile stage, read-out: S. mansoni ED50, juvenile
[25] = beagle, dog, in vivo, female dogs, iv 1 mg/kg
[26] = beagle, dog, in vivo, male dogs, iv 1 mg/kg
[27] = both sexes, dog, in vivo, single po administration

Sequence of CYP 3A4 (P08684 whole entry): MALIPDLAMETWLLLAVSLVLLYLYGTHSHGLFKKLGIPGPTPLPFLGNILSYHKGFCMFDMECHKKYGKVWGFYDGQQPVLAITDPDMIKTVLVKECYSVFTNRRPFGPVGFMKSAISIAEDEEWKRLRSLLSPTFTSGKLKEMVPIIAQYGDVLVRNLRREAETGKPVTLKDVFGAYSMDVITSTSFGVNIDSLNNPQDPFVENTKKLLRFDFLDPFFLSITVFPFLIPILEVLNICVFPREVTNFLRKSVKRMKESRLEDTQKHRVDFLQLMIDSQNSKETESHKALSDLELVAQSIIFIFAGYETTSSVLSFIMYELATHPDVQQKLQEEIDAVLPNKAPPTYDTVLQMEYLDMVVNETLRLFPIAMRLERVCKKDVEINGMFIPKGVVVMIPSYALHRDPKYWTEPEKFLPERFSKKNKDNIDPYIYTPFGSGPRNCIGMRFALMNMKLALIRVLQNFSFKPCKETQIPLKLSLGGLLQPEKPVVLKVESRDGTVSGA
Sequence of CYP 2C19 (P33261 whole entry): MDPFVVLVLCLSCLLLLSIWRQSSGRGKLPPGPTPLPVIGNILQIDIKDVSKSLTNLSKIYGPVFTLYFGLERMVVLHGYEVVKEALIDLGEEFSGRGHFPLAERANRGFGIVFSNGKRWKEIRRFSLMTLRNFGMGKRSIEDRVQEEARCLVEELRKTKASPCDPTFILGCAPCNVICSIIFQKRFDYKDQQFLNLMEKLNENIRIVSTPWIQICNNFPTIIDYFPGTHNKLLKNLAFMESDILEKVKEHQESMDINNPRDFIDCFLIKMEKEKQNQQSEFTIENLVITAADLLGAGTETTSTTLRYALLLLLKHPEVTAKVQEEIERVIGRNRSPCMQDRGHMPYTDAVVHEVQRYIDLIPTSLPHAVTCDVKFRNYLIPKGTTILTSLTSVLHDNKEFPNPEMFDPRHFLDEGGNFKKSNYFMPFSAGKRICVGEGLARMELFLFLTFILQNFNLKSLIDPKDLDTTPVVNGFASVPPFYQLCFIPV

CC1(C)NC(=O)N(c2ccc(F)c(C(C)(F)F)c2)C1=O [Compound IC, 3-(3-(1,1-difluoroethyl)-4-fluorophenyl)-5,5-dimethylimidazolidine-2,4-dione]
LogD7.4 (shake flask) [1]: 2.1
logD [1]: 2.1
microsomal CLint [2]: < 7 µL/min/mg
CLint [3]: <1 μL/min/10^6
fraction unbound [4]: 0.38
fraction unbound [5]: 0.38
microsomal CLint [6]: 7 µL/min/mg
IC50 [7]: > 20 µM
fraction unbound [8]: 0.36
CLint [9]: <1 μL/min/10^6
ED50 [10, 23]: 20 mg/kg
ED50 [10, 24]: 23 mg/kg
IC50 [11]: > 20 µM

[2H]C([2H])([2H])C1(C([2H])([2H])[2H])NC(=O)N(c2ccc(F)c(C(C)(F)F)c2)C1=O [Compound IE, 3-(3-(1,1-difluoroethyl)-4-fluorophenyl)-5,5-bis(methyl-d3)imidazolidine-2,4-dione]
ED50 ([12]; Schistosoma japonicum, oral): 6.7 mg/kg
clearance of S. japonicum infections ([12]; single 25 mg/kg oral dose): completely cleared
LogD7.4 (shake flask) [1]: 1.9
logD [1]: 1.9
B:P [13]: 0.78±0.035 and 0.78
microsomal CLint [2]: < 7 µL/min/mg
CLint [3]: <2 μL/min/10^6
hepatocyte CLint ([3]; read-out: in vitro CLint): < 2000 µL/min/1e6 cells
% bound [4]: 54%
fraction unbound [4]: 0.462
fraction unbound [5]: 0.42
microsomal CLint [6]: < 7 µL/min/mg
ED50 ([14]; Schistosoma japonicum, oral): 8.5 mg/kg
clearance of S. japonicum infections ([14]; single 25 mg/kg oral dose): completely cleared
loss of parent compound, acidic conditions ([15]; 0.01 M and 0.1 M HCl, up to 48 h): minimal loss
loss of parent compound, basic conditions ([15]; 0.01 M and 0.1 M NaOH, after 2 min): significant loss
loss of parent compound, 15% H2O2 ([15]; 15% H2O2 incubation): no significant loss
IC50 ([7]; 2C19, read-out: CYP inhibition IC50): > 20 µM
CYP inhibition ([7]; CYP 2C19, concentrations up to 20 μM, human liver microsomes): did not inhibit
microsomal CLint [16]: < 7 µL/min/mg
loss of parent compound (photostability) [17]: < 3%
fraction unbound [8]: 0.32
CLint [9]: <2 μL/min/10^6
hepatocyte CLint ([9]; rat cryopreserved hepatocytes, read-out: in vitro CLint): < 2000 µL/min/1e6 cells
ED50 [10, 23]: 7.1 mg/kg
ED50 [10, 24]: 16 mg/kg
clearance of S. haematobium infections [18]: completely cleared
CYP inhibition ([11]; CYP 3A4, concentrations up to 20 μM, human liver microsomes): did not inhibit
IC50 ([11]; read-out: CYP inhibition IC50, 3A4* (tes/mid)): > 20 µM
changes via transcriptomic and ultraresolution microscopy [19]: no significant changes
AUC ([20]; beagle, dog, in vivo, female dogs (n = 2), IV 1 mg/kg, read-out: Plasma AUCIV 0-last): 405 µg·h/mL
clearance ([20]; beagle, dog, in vivo, female dogs (n = 2), IV 1 mg/kg): 1.92 mL/h/kg
AUC ([20]; beagle, dog, in vivo, female dogs (n = 2), PO 15 mg/kg, read-out: Plasma AUCoral 0-last): 7030 µg·h/mL
Cmax ([20]; beagle, dog, in vivo, female dogs (n = 2), PO 15 mg/kg, read-out: Plasma Cmax): 42700 ng/mL
AUC(0-t) [20, 25]: 377 µg·h/mL
Cmax ([20]; beagle, dog, in vivo, female dogs, iv 1 mg/kg, read-out: mean peak plasma concentration (Cmax)): 12500 ng/mL
C0 [20, 25]: 18800 ng/mL
AUC ([20]; beagle, dog, in vivo, male dogs (n = 2), IV 1 mg/kg, read-out: Plasma AUCIV 0-last): 526 µg·h/mL
clearance ([20]; beagle, dog, in vivo, male dogs (n = 2), IV 1 mg/kg): 1.44 mL/h/kg
AUC ([20]; beagle, dog, in vivo, male dogs (n = 2), PO 15 mg/kg, read-out: Plasma AUCoral 0-last): 8800 µg·h/mL
Cmax ([20]; beagle, dog, in vivo, male dogs (n = 2), PO 15 mg/kg, read-out: Plasma Cmax): 51900 ng/mL
AUC(0-t) [20, 26]: 485 µg·h/mL
Cmax ([20]; beagle, dog, in vivo, male dogs, iv 1 mg/kg, read-out: mean peak plasma concentration (Cmax)): 6880 ng/mL
C0 [20, 26]: 9460 ng/mL
Tmax ([20]; both sexes, beagle, dog, in vivo, dogs, po dose groups 15, 75, 150 mg/kg, read-out: time of peak plasma concentrations (Tmax)): 0.25 to 24 h
MTD ([20]; both sexes, dog, in vivo, 1 mg/kg, single iv administration): > 1 mg/kg
MTD [20, 27]: > 150 mg/kg
NOAEL ([20]; both sexes, dog, in vivo, single iv administration): ≥ 1 mg/kg
NOAEL [20, 27]: ≥ 150 mg/kg
Bioavailability, determined using AUClast ([20]; both, beagle, dog, in vivo, po): greater than 100%
increase in AUClast, 150 mg/kg compared to mid-dose ([20]; both, beagle, dog, in vivo, po, 150 mg/kg): 2-3 fold
PlasmaVSS ([20]; female, beagle, dog, in vivo, iv, 1 mg/kg): 0.45 L/kg
half-life ([20]; female, beagle, dog, in vivo, iv, 1 mg/kg, female dogs (n = 2), IV 1 mg/kg, read-out: Apparent t1/2 (converted)): 5.12 days
half-life ([20]; female, beagle, dog, in vivo, iv, 1 mg/kg, female dogs, iv 1 mg/kg, read-out: mean elimination phase half-life (t1/2) (converted)): 6.33 days
BA based on AUC0-last ([20]; female, beagle, dog, in vivo, po, 15 mg/kg): 115%
half-life ([20]; female, beagle, dog, in vivo, po, 150 mg/kg, female dogs, po 150 mg/kg, read-out: mean t1/2 (converted)): 16.8 days
Apparent t1/2 ([20]; male dogs (n = 2), PO 15 mg/kg): 237 h
PlasmaVSS ([20]; male, beagle, dog, in vivo, iv, 1 mg/kg): 0.36 L/kg
half-life ([20]; male, beagle, dog, in vivo, iv, 1 mg/kg, male dogs (n = 2), IV 1 mg/kg, read-out: Apparent t1/2 (converted)): 6.46 days
half-life ([20]; male, beagle, dog, in vivo, iv, 1 mg/kg, male dogs, iv 1 mg/kg, read-out: mean elimination phase half-life (t1/2) (converted)): 6.96 days
BA based on AUC0-last ([20]; male, beagle, dog, in vivo, po, 15 mg/kg): 111%
half-life ([20]; male, beagle, dog, in vivo, po, 15 mg/kg, male dogs (n = 2), PO 15 mg/kg, read-out: Apparent t1/2 (converted)): 9.88 days
half-life ([20]; male, beagle, dog, in vivo, po, 75 mg/kg, male dogs, po 75 mg/kg, read-out: mean t1/2 (converted)): 14.2 days
levels of DHT-induced (KLK3, FKBP5) and DHT-repressed (ZFP36L1) transcripts [21]: no effect
microsomal CLint [22]: < 7 µL/min/mg
